≈ marks a conversion by molar mass, not a printed value.
Key:
in vitro [1] = settings: rat, liver microsomes
Pseudomonas aeruginosa [2] = assay: microbe, parasite or virus in culture
Enterobacter cloacae = assay: microbe, parasite or virus in culture
Klebsiella oxytoca = assay: microbe, parasite or virus in culture
physchem [3] = settings: buffer, pH 9
Burkholderia cepacia = assay: microbe, parasite or virus in culture
physchem [4] = settings: n-octanol/phosphate buffer, pH 7.4
Morganella morganii = assay: microbe, parasite or virus in culture
Klebsiella pneumoniae [5] = assay: microbe, parasite or virus in culture; settings: T6474
physchem [6] = settings: 5% mannitol/water, pH 8.2
in vivo [7] = settings: Wistar, rat, iv, 10 mg/kg
Serratia marcescens = assay: microbe, parasite or virus in culture
Escherichia coli [8] = assay: microbe, parasite or virus in culture; settings: ATCC 25922
[9] = test system: Stenotrophomonas maltophilia; assay: microbe, parasite or virus in culture
in vitro [10] = settings: rat, hepatocytes
Klebsiella aerogenes = assay: microbe, parasite or virus in culture
Citrobacter freundii = assay: microbe, parasite or virus in culture
Proteus mirabilis = assay: microbe, parasite or virus in culture
Pseudomonas aeruginosa [11] = assay: microbe, parasite or virus in culture; settings: ATCC 27853
in vitro [12] = settings: rat, plasma
in vitro [13] = settings: human, liver microsomes
in vitro [14] = settings: human, hepatocytes
Klebsiella pneumoniae [15] = assay: microbe, parasite or virus in culture
Moraxella catarrhalis = assay: microbe, parasite or virus in culture
in vivo [16] = settings: mouse, sc, 150 mg/kg
Acinetobacter baumannii = assay: microbe, parasite or virus in culture
Haemophilus influenzae = assay: microbe, parasite or virus in culture
physchem [17] = settings: buffer, pH 7
Escherichia coli [18] = assay: microbe, parasite or virus in culture
physchem [19] = settings: buffer, pH 4

With `C[C@@](CCN1Cc2cc(C#CC#C[C@H]3C[C@@H]3[C@@H](O)CO)cn2C1=O)(C(=O)NO)S(C)(=O)=O` the microsomal CLint at 1 µM (in vitro [1]) was < 10 µL/min/mg, the MIC90 (Pseudomonas aeruginosa [2]) was 2 µg/mL (≈ 4.31 µM) and the MIC90 (Enterobacter cloacae) was 4 µg/mL (≈ 8.63 µM). The MIC90 (Klebsiella oxytoca) was 4 µg/mL (≈ 8.63 µM), the solubility at 24 h (physchem [3]) was > 780 µg/mL and the MIC90 (Burkholderia cepacia) was 8 µg/mL (≈ 17.3 µM). For the same molecule, the logD (physchem [4]) was 0.5, the MIC90 (Morganella morganii) was 1 µg/mL (≈ 2.16 µM) and the MIC (Klebsiella pneumoniae [5]) was 1 µg/mL (≈ 2.16 µM). The solubility (physchem [6]) was 25000 µg/mL (≈ 53900 µM), the clearance at 24 h (in vivo [7]) was 3.1 mL/min/kg and the MIC90 (Serratia marcescens) was 0.5 µg/mL (≈ 1.08 µM). The MIC (Escherichia coli [8]) was 0.5 µg/mL (≈ 1.08 µM), the MIC90 [9] was > 16 µg/mL and the hepatocyte CLint at 1 µM (in vitro [10]) was 10.2 µL/min/1e6 cells. For the same molecule, the MIC90 (Klebsiella aerogenes) was 2 µg/mL (≈ 4.31 µM), the MIC90 (Citrobacter freundii) was 1 µg/mL (≈ 2.16 µM) and the MIC90 (Proteus mirabilis) was 1 µg/mL (≈ 2.16 µM). The MIC (Pseudomonas aeruginosa [11]) was 1 µg/mL (≈ 2.16 µM), the fraction unbound at 1 µM (in vitro [12]) was 0.018 and the microsomal CLint at 1 µM (in vitro [13]) was < 10 µL/min/mg. For the same molecule, the hepatocyte CLint at 1 µM (in vitro [14]) was < 2 µL/min/1e6 cells, the MIC90 (Klebsiella pneumoniae [15]) was 4 µg/mL (≈ 8.63 µM) and the MIC90 (Moraxella catarrhalis) was > 16 µg/mL. For the same molecule, the AUC(0-t) at 24 h (in vivo [16]) was 347 µg·h/mL, the MIC90 (Acinetobacter baumannii) was > 16 µg/mL and the MIC90 (Haemophilus influenzae) was ≤ 0.03 µg/mL. For the same molecule, the solubility at 24 h (physchem [17]) was > 780 µg/mL, the MIC90 (Escherichia coli [18]) was 2 µg/mL (≈ 4.31 µM) and the solubility at 24 h (physchem [19]) was > 780 µg/mL.

From ChEMBL document CHEMBL4321867, “Optimization of LpxC Inhibitor Lead Compounds Focusing on Efficacy and Formulation for High Dose Intravenous Administration” (J Med Chem, 2020)
